Measurements reported in ChEMBL document CHEMBL1154782, “Discovery of Trp-His and His-Arg analogues as new structural classes of short antimicrobial peptides” (J Med Chem, 2009).
In brackets after ≈: the same amount, converted by molar mass. Where a SMILES comes first, the peptide text is derived from it. The star is where a group is joined. Boc = CC(C)(C)OC(=O)*; NHBn = c1ccc(CN*)cc1

How the values were obtained:
[1] = test system: Staphylococcus epidermidis; assay: Antibacterial activity against methicillin-resistant Staphylococcus epidermidis DSM 50160384 after 15 to 18 hrs under aerobic condition by modified broth microdilution method; type: functional
L929 = assay: Cytotoxicity against mouse L929 cells up to 200 ug/mL after 5 days by MTT assay; type: cell-based; conditions: l929, 120 h
Candida albicans [2] = assay: Antifungal activity against Candida albicans ATCC 10231 after 15 to 18 hrs under aerobic condition by modified broth microdilution method; type: functional
Staphylococcus aureus [3] = assay: Antibacterial activity against methicillin-resistant Staphylococcus aureus DSM 50128509 after 15 to 18 hrs under aerobic condition by modified broth microdilution method; type: functional
Klebsiella pneumoniae = assay: Antibacterial activity against Klebsiella pneumoniae ATCC 700603 after 15 to 18 hrs under aerobic condition by modified broth microdilution method; type: functional
Pseudomonas aeruginosa = assay: Antibacterial activity against Pseudomonas aeruginosa ATCC 9027 after 15 to 18 hrs under aerobic condition by modified broth microdilution method; type: functional
Staphylococcus aureus [4] = assay: Antibacterial activity against methicillin-resistant Staphylococcus aureus DSM 50128509; type: functional, organism-based
Escherichia coli = assay: Antibacterial activity against Escherichia coli ATCC 35218 after 15 to 18 hrs under aerobic condition by modified broth microdilution method; type: functional
[5] = test system: Staphylococcus epidermidis; assay: Antibacterial activity against methicillin-resistant Staphylococcus epidermidis DSM 50160384; type: functional, organism-based
Candida albicans [6] = assay: Antifungal activity against Candida albicans ATCC 10231; type: functional, organism-based

SMILES	MIC [1] [µg/mL]	Activity (L929)	MIC (Candida albicans [2]) [µg/mL]	MIC (Staphylococcus aureus [3]) [µg/mL]	MIC (Klebsiella pneumoniae) [µg/mL]	MIC (Pseudomonas aeruginosa) [µg/mL]	IC50 (Staphylococcus aureus [4]) [µg/mL]	MIC (Escherichia coli) [µg/mL]	IC50 [5] [µg/mL]	IC50 (Candida albicans [6]) [µg/mL]
CC(C)c1nc(C[C@H](NC(=O)[C@H](Cc2c[nH]c3ccccc23)NC(=O)OC(C)(C)C)C(=O)NCc2ccccc2)c[nH]1	> 200	Non-toxic	> 200	200 (≈ 349 µM)	> 200	> 200	10.3 (≈ 17.9 µM)	> 200		
CC(C)(C)OC(=O)N[C@@H](Cc1c[nH]c2ccccc12)C(=O)N[C@@H](Cc1c[nH]c(C(C)(C)C)n1)C(=O)NCc1ccccc1	> 200	Non-toxic	> 200	> 200	> 200	> 200		> 200		
COC(=O)[C@H](CCCNC(=N)N)NC(=O)[C@H](Cc1c[nH]c(C(C)C)n1)NC(=O)OC(C)(C)C	200 (≈ 428 µM)	Non-toxic	200 (≈ 428 µM)	200 (≈ 428 µM)	> 200	> 200	12.4 (≈ 26.6 µM)	> 200	13.1 (≈ 28 µM)	20.9 (≈ 44.6 µM)
N=C(N)NCCC[C@H](NC(=O)[C@@H](N)Cc1c[nH]c(C2CCC2)n1)C(=O)NCc1ccccc1	50 (≈ 110 µM)	Non-toxic	100 (≈ 220 µM)	50 (≈ 110 µM)	> 200	> 200	6.99 (≈ 15.4 µM)	> 200	3.94 (≈ 8.67 µM)	9.95 (≈ 21.9 µM)
CC(C)(C)OC(=O)N[C@@H](Cc1c[nH]cn1)C(=O)N[C@@H](CCCNC(=N)N)C(=O)NCc1ccccc1 (Boc-His-Arg-NHBn)	100 (≈ 200 µM)	Non-toxic	> 200	> 200	> 200	> 200		> 200	8.79 (≈ 17.6 µM)	
CN[C@H](CC(C)C)C(=O)N[C@H]1C(=O)N[C@@H](CC(N)=O)C(=O)N[C@H]2C(=O)N[C@H]3C(=O)N[C@H](C(=O)N[C@H](C(=O)O)c4cc(O)cc(O)c4-c4cc3ccc4O)[C@H](O)c3ccc(c(Cl)c3)Oc3cc2cc(c3O[C@@H]2O[C@H](CO)[C@@H](O)[C@H](O)[C@H]2O[C@H]2C[C@](C)(N)[C@H](O)[C@H](C)O2)Oc2ccc(cc2Cl)[C@H]1O [VANCOMYCIN]							0.14 (≈ 0.0966 µM)		0.14 (≈ 0.0966 µM)	
CC(C)c1nc(C[C@H](NC(=O)[C@@H](N)Cc2c[nH]c3ccccc23)C(=O)NCc2ccccc2)c[nH]1	100 (≈ 212 µM)	Non-toxic	> 200	> 200	> 200	> 200		> 200	12.8 (≈ 27.1 µM)	
COC(=O)[C@H](Cc1c[nH]cn1)NC(=O)[C@H](Cc1c[nH]c2ccccc12)NC(=O)OC(C)(C)C (Boc-Trp-His-OMe)	> 200	Non-toxic	200 (≈ 439 µM)	200 (≈ 439 µM)	> 200	> 200	16.4 (≈ 35.9 µM)	> 200		31.4 (≈ 68.9 µM)
CC(C)(C)c1nc(C[C@H](NC(=O)[C@@H](N)Cc2c[nH]c3ccccc23)C(=O)NCc2ccccc2)c[nH]1	100 (≈ 205 µM)	Non-toxic	> 200	> 200	> 200	> 200		> 200	9.24 (≈ 19 µM)	
COC(=O)[C@H](CCCNC(=N)N)NC(=O)[C@@H](N)Cc1c[nH]c(C2CCCCC2)n1	10 (≈ 24.5 µM)	Non-toxic	200 (≈ 491 µM)	50 (≈ 123 µM)	> 200	> 200	20.9 (≈ 51.4 µM)	> 200	1.92 (≈ 4.71 µM)	27.5 (≈ 67.6 µM)
C[C@@H]1[C@H](O)[C@@H](C)/C=C/C=C/C=C/C=C/C=C/C=C/C=C/[C@H](O[C@@H]2O[C@H](C)[C@@H](O)[C@H](N)[C@@H]2O)C[C@@H]2O[C@](O)(C[C@@H](O)C[C@@H](O)[C@H](O)CC[C@@H](O)C[C@@H](O)CC(=O)O[C@H]1C)C[C@H](O)[C@H]2C(=O)O [AMPHOTERICIN B]										0.34 (≈ 0.368 µM)
COC(=O)[C@H](CCCNC(=N)N)NC(=O)[C@H](Cc1c[nH]cn1)NC(=O)OC(C)(C)C (Boc-His-Arg-OMe)	100 (≈ 235 µM)	Non-toxic	> 200	> 200	> 200	> 200		> 200	5.07 (≈ 11.9 µM)	
CC(C)(C)OC(=O)N[C@@H](Cc1c[nH]c2ccccc12)C(=O)N[C@@H](Cc1c[nH]c(C2CCCCC2)n1)C(=O)NCc1ccccc1	200 (≈ 326 µM)	Non-toxic	> 200	200 (≈ 326 µM)	> 200	> 200	31.7 (≈ 51.7 µM)	> 200	23.8 (≈ 38.9 µM)	
COC(=O)[C@H](CCCNC(=N)N)NC(=O)[C@@H](N)Cc1c[nH]cn1 (H-His-Arg-OMe)	50 (≈ 154 µM)	Non-toxic	> 200	100 (≈ 307 µM)	> 200	> 200	4.88 (≈ 15 µM)	> 200	2.72 (≈ 8.36 µM)	
CC(C)(C)c1nc(C[C@H](N)C(=O)N[C@@H](CCCNC(=N)N)C(=O)NCc2ccccc2)c[nH]1	10 (≈ 21.9 µM)	Non-toxic	> 200	20 (≈ 43.8 µM)	> 200	> 200	4.18 (≈ 9.15 µM)	> 200	3.13 (≈ 6.86 µM)	
COC(=O)[C@H](CCCNC(=N)N)NC(=O)[C@H](Cc1c[nH]c(C(C)(C)C)n1)NC(=O)OC(C)(C)C	200 (≈ 415 µM)	Non-toxic	> 200	100 (≈ 208 µM)	> 200	> 200	4.15 (≈ 8.62 µM)	> 200	20.1 (≈ 41.8 µM)	
N=C(N)NCCC[C@H](NC(=O)[C@@H](N)Cc1c[nH]cn1)C(=O)NCc1ccccc1 (H-His-Arg-NHBn)	100 (≈ 250 µM)	Non-toxic	200 (≈ 499 µM)	100 (≈ 250 µM)	> 200	> 200	7.04 (≈ 17.6 µM)	> 200	8.07 (≈ 20.2 µM)	16.6 (≈ 41.5 µM)
COC(=O)[C@H](Cc1c[nH]c(C(C)C)n1)NC(=O)[C@H](Cc1c[nH]c2ccccc12)NC(=O)OC(C)(C)C	> 200	Non-toxic	> 200	> 200	> 200	> 200		> 200		
CC(C)(C)OC(=O)N[C@@H](Cc1c[nH]c(C2CCCCC2)n1)C(=O)N[C@@H](CCCNC(=N)N)C(=O)NCc1ccccc1	100 (≈ 172 µM)	Non-toxic	> 200	100 (≈ 172 µM)	> 200	> 200	12.1 (≈ 20.7 µM)	200 (≈ 343 µM)	18.4 (≈ 31.6 µM)	
N[C@@H](Cc1c[nH]c2ccccc12)C(=O)N[C@@H](Cc1c[nH]cn1)C(=O)NCc1ccccc1 (H-Trp-His-NHBn)	200 (≈ 465 µM)	Non-toxic	200 (≈ 465 µM)	200 (≈ 465 µM)	> 200	> 200	12.3 (≈ 28.5 µM)	> 200	29 (≈ 67.3 µM)	15.2 (≈ 35.2 µM)
CC(C)(C)OC(=O)N[C@@H](Cc1c[nH]c2ccccc12)C(=O)N[C@@H](Cc1c[nH]c(C2CCC2)n1)C(=O)NCc1ccccc1	> 200	Non-toxic	200 (≈ 342 µM)	200 (≈ 342 µM)	> 200	> 200	22.4 (≈ 38.2 µM)	> 200		33.2 (≈ 56.7 µM)
